Experimental data taken from patent publication US10744127B2, “MDR-reversing 8-hydroxy-quinoline derivatives” (MAGYAR TUDOMÁNYOS AKADÉMIA TERMÉSZETTUDOMÁNYI KUTATÓKÖZPONT, priority 2016, dated 2020).
Like-named read-outs stand apart in the source and are kept apart here. Each block holds one compound with its values, some of them ahead of it.

Experiments:
[1] = system: A431 and A431-B1 cell lines; experiment: Selective toxicity in A431 and A431-B1 cell lines; type: cell-based, human; conditions: A431 versus P-gp-transfected A431-B1
Method: (§1) Cell survival was measured by the PrestoBlue® Cell Viability Reagent (Life Technologies, USA). Cells were seeded in 100 μl medium at a density of 5000 cells/well in 96-well plates; the serially diluted drug was added the following day. Cells were then incubated for 72 hours at 37° C. in 5% CO2; the drug containing medium was removed, and the PrestoBlue® reagent was added according to the manufacturer's instructions. Fluorescence of the cells was measured by a Perkin Elmer EnSpire multimode plate reader or Perkin Elmer Victor X3 microplate reader. Data were background corrected and normalized to untreated cells. Curves were fitted with the help of Prism software using the sigmoidal dose-response model. Curve fit statistics were used to determine IC50 values. Differences between the IC50 values of the respective cell lines were analyzed by two-sided […] unpaired Student's t test and results were considered statistically significant at a P value of <0.05 (*) or 0.01 (**).
(§2) Data on selective toxicity (expressed as Selectivity Ratio, SR) in two MDR models engineered by retroviral transfection of P-glycoprotein (A431/A431-B1 and MDCK II/MDCK II B1 cell lines) are presented in Table 3 and Table 4.
(§3) A431 is a human epidermoid carcinoma cell line. Its derivative, the A431-B1 cell line expresses P-gp due to retroviral transfection of the mdr1 gene Türk, D. et al (Türk, D. et al., 2009). MDCK II is a canine kidney cell line. MDCK II B1 was created by inserting the mdr1 gene with transposons [Pape V F S et al. 2015] Both cell express P-gp stably, and show a stable MDR phenotype. Culture conditions were identical as in the case of MES-SA cells.

MES-SA/Dx5 cell line = experiment: Cytotoxicity, PrestoBlue cell viability assay, MES-SA/Dx5; type: cell-based; conditions: Homo sapiens
Method: (§4) The human uterine sarcoma cell line MES-SA and its doxorubicin resistant counterpart MES-SA/Dx5 were obtained from ATCC (MES-SA: No. CRL-1976™, MES-SA-Dx5: No. CRL-1977™). MES-SA/Dx5 cells express high levels of P-gp, and therefore are multidrug resistant (MDR). Cells were cultured in DMEM supplemented with 10% FBS, 5 mmol/L glutamine and 50 unit/mL penicillin and streptomycin (Life Technologies).
as §1

[2] = system: MES-SA and multidrug-resistant MES-SA/Dx5 cell line; experiment: Selective toxicity (ratio of IC50 in MES-SA to IC50 in MES-SA/Dx5) and activity index; type: cell-based, human
From the text: Compounds having P-gp potentiated MDR-selective activity can be characterized by their inhibitory concentration (IC) with regard to a specific cancer cell line. Usually the IC value is given at a certain percentage ratio of non-inhibited molecules or surviving cells. For example an IC20 value of a compound on a cell line means that at this inhibitory concentration of the compound 80% of the cells are killed whereas 20% of the cells are still viable. A further characteristic of MDR-selective drugs is the selectivity ratio (SR), which is the ratio of the IC value measured in a non-multidrug resistant cell line to (i.e. divided by) the IC value measured in the corresponding transformed, multidrug-resistant cell line. The inverse value, the resistance ratio (RR) is calculated as the ratio of a compound's IC value against a multidrug resistant cell line divided by the parallel IC value of the same compound against a control non-multidrug resistant cell line. The Activity Index (AI) is calculated here as the ratio of the compound's selectivity ratio (SR) and the compound's IC50 value against the resistant cell. The AI reflects the level of simultaneous toxicity and selectivity towards multidrug-resistant cancer cells.
as §4, §1
Selectivity towards multidrug-resistant cells is expressed as the ratio of the IC50 value measured in the parental MES-SA and multidrug-resistant MES-SA/Dx5 cell line (Selectivity Ratio, SR).
A novel characteristic of the compounds presented in this invention is that they exert their selective cytotoxicity at low IC50 values. Simultaneous toxicity and selectivity towards multidrug-resistant cancer cells is reflected by the Activity Index (AI) of the compounds, which is the ratio of the selectivity ratio (SR) and the IC50 value on the resistant cell line.

MES-SA cell line = experiment: Cytotoxicity, PrestoBlue cell viability assay, parental MES-SA; type: cell-based; conditions: Homo sapiens; parental MES-SA cell line (Table 2a)
Method: as §4, §1

[3] = system: MES-SA and MES-SA/Dx5 cells; experiment: Selective toxicity in the presence of the P-gp inhibitor tariquidar; type: cell-based, human; conditions: selectivity ratio in the presence of tariquidar (1 μM)
Method: In the presence of tariquidar (an inhibitor of P-gp function), the toxicity of the compounds selectively diminishes in multidrug-resistant MES-SA/Dx5 cells, while the toxicity is unchanged against parental MESSA cells, which is reflected by a decrease in the selectivity ratio (SR (TQ)).
To investigate the contribution of P-glycoprotein to the cytotoxic effect of a compound, cell survival was measured in the presence of the P-glycoprotein inhibitor tariquidar (1 μM). Tariquidar (CAS 206873-63-4) can be obtained e.g. from Selleck, Houston, USA.

[4] = system: P-gp-expressing MES-SA/Dx5 cells; experiment: P-gp switch assay (Calcein AM); type: cell-based, human; conditions: MES-SA/Dx5, single dose at IC20 (killing 80% of the cells), surviving population at 80% confluence, Calcein AM
Method: One million P-gp-expressing MES-SA/Dx5 cells were plated in a T25 cell culture flask. After 24 hours the compound of interest was added directly to the cells at a concentration corresponding to the IC20 value (killing 80% of the cells). After 5 days the culture media was removed, the cells were washed with PBS and the culture medium was exchanged. Cells were monitored daily and the recovery was recorded. The medium was changed every 5 days until the confluence of the cells reached 80%. At 80% confluence the cells were removed by gentle trypsinization, counted by an automated cell counter and stained with Calcein AM, a cellular dye able to detect the function of P-gp (Homolya 1993). P-gp-positivity was evaluated based on the ability of P-gp-expressing cells to extrude Calcein AM.

[5] = system: MDCK II and MDCK II B1 cell lines; experiment: Selective toxicity towards MDCK II and MDCK II B1 cell lines; type: cell-based, canine; conditions: MDCK II versus MDCK II B1
Method: as §1, §2, §3

[6] = MES-SA/Dx5 (Table 2b), read-out: IC50 (μM) Dx5
[7] = Mes-sa/Dx5 cell line, PrestoBlue assay, 72 hours (Table 1), read-out: IC50
[8] = multidrug-resistant MES-SA/Dx5 cell line (Table 2a), read-out: IC50 (nM) in MES-SA/Dx5 cell line
[9] = MES-SA / MES-SA/Dx5, without tariquidar (Table 5)

SMILES: O=C1NC2CCCCC2NC1c1cc(Cl)c2cccnc2c1O (mixture of isomers) [Example 22, (3R,4aS,8aS)-3-(5-Chloro-8-hydroxyquinolin-7-yl)octahydroquinoxalin-2(1H)-one and (3S,4aS,8aS)-3-(5-chloro-8-hydroxyquinolin-7-yl)octahydroquinoxalin-2(1H)-one]
Selectivity Ratio (SR) (A431/A431-B1) [1]: 18.8

SMILES: C/C(=N\Nc1ccc2cccc(O)c2n1)c1ccccc1O [Example 1, (E/Z)-2-(2-(1-(2-Hydroxyphenyl)ethylidene)hydrazinyl)quinolin-8-ol]
melting point: 225 to 228 °C

SMILES: C/C(=N\Nc1ccc2cccc(O)c2n1)c1ccccn1 [Example 2, (E/Z)-2-(2-(1-(Pyridine-2-yl)ethylidene)hydrazinyl)quinolin-8-ol]
melting point: 213 to 214 °C

SMILES: C/C(=N\Nc1ccc2ccc(CN3CCCCC3)c(O)c2n1)c1ccccc1O [Example 4, (E/Z)-2-(2-(1-(2-Hydroxyphenyl)ethylidene)hydrazinyl)-7-(piperidin-1-ylmethyl)quinolin-8-ol]
IC50 (MES-SA/Dx5 cell line; [6]): 0.16 µM
IC50 (MES-SA/Dx5 cell line; [7]): 0.16 µM
SR ([2]; MES-SA / MES-SA/Dx5 (Table 2b)): 5.9
Selectivity Ratio (SR) (A431/A431-B1) [1]: 11.7
melting point: 184 to 187 °C

SMILES: Cl.Oc1c(CNCc2ccccc2F)cc(Cl)c2cccnc12 [Example 12, 5-Chloro-7-({[(2-fluorophenyl)methyl]amino}methyl)quinolin-8-ol Hydrochloride]
Selectivity Ratio (SR) (MDCK II/MDCK II B1) [5]: 8.3

SMILES: Oc1c(C2NCCc3ccccc32)cc(Cl)c2cccnc12 (stereo not shown) [Example 13, 5-Chloro-7-(1,2,3,4-tetrahydroisoquinolin-1-yl)quinolin-8-ol]
IC50 (MES-SA/Dx5 cell line; [7]): 0.127 µM
Fraction of P-gp-negative cells (P3) in the population [4]: 88.00%
Fraction of P-gp-positive cells (P4) in the population [4]: 12.00%

SMILES: Oc1c(C2NCCc3ccccc32)cc(Br)c2cccnc12 (stereo not shown) [Example 14, 5-Bromo-7-(1,2,3,4-tetrahydroisoquinolin-1-yl)quinolin-8-ol]
IC50 (MES-SA/Dx5 cell line; [6]): 0.13 µM
IC50 (MES-SA/Dx5 cell line; [7]): 0.13 µM
SR ([2]; MES-SA / MES-SA/Dx5 (Table 2b)): 7.8
Selectivity Ratio (SR) (A431/A431-B1) [1]: 13.7

SMILES: O=[N+]([O-])c1cc(C2NCCc3ccccc32)c(O)c2ncccc12 (stereo not shown) [Example 15, 5-Nitro-7-(1,2,3,4-tetrahydroisoquinolin-1-yl)quinolin-8-ol]
IC50 (MES-SA cell line): 12400 nM
IC50 (MES-SA/Dx5 cell line; [6]): 0.59 µM
IC50 (MES-SA/Dx5 cell line; [8]): 0.594 µM
SR (TQ) [3]: 1.4
Fraction of P-gp-negative cells (P3) in the population [4]: 67.2%
Fraction of P-gp-positive cells (P4) in the population [4]: 32.80%
SR ([2]; MES-SA / MES-SA/Dx5 (Table 2b)): 23.8
SR [2, 9]: 23.8

SMILES: COc1cc2c(cc1OC)C(c1cc(Cl)c3cccnc3c1O)NCC2 (stereo not shown) [Example 16, 5-Chloro-7-(6,7-dimethoxy-1,2,3,4-tetrahydroisoquinolin-1-yl)quinolin-8-ol]
SR (TQ) [3]: 0.9
SR [2, 9]: 10.3
Selectivity Ratio (SR) (A431/A431-B1) [1]: 24.7

SMILES: Oc1c(C2NCCc3sccc32)ccc2cccnc12 (stereo not shown) [Example 18, 7-(4,5,6,7-Tetrahydrothieno[3,2-c]pyridin-4-yl)quinolin-8-ol]
IC50 (MES-SA/Dx5 cell line; [7]): 0.157 µM
Fraction of P-gp-negative cells (P3) in the population [4]: 80.6%
Fraction of P-gp-positive cells (P4) in the population [4]: 19.40%

SMILES: O=[N+]([O-])c1cc(C2NCCc3sccc32)c(O)c2ncccc12 (stereo not shown) [Example 19, 5-Nitro-7-(4,5,6,7-tetrahydrothieno[3,2-c]pyridin-4-yl)quinolin-8-ol]
Selectivity Ratio (SR) (A431/A431-B1) [1]: 24.7

SMILES: Cc1ccc2ccc(C3NCCc4sccc43)c(O)c2n1 (stereo not shown) [Example 20]
Selectivity Ratio (SR) (MDCK II/MDCK II B1) [5]: 10.0
Selectivity Ratio (SR) (A431/A431-B1) [1]: 13.2

SMILES: COc1ccc(CNCc2cc(S(C)(=O)=O)c3cccnc3c2O)c(OC)c1 [Example 37, 7-(((2,4-Dimethoxybenzyl)amino)methyl)-5-(methylsulfonyl)quinolin-8-ol]
Selectivity Ratio (SR) (MDCK II/MDCK II B1) [5]: 8.9
Selectivity Ratio (SR) (A431/A431-B1) [1]: 16.7

Second part, led by results:

melting point: 248 to 250 °C
SMILES: Oc1c(CN2CCCCC2)ccc2ccc(N/N=C/c3ccccn3)nc12 [Example 5, (E/Z)-7-(Piperidin-1-ylmethyl)-2-(2-(pyridine-2-ylmethylene)hydrazinyl)quinolin-8-ol]
IC50 (MES-SA cell line): 40500 nM
IC50 (MES-SA/Dx5 cell line; [8]): 1.97 µM
SR (TQ) [3]: 1.2
Fraction of P-gp-negative cells (P3) in the population [4]: 67.6%
Fraction of P-gp-positive cells (P4) in the population [4]: 32.40%
SR [2, 9]: 20.9

melting point: 123 to 125 °C
SMILES: Oc1c(CNC2CCCCC2)cc(Cl)c2cccnc12 [Example 6, 5-Chloro-7-((cyclohexylamino)methyl)quinolin-8-ol]
Selectivity Ratio (SR) (A431/A431-B1) [1]: 11.5

melting point: 125 to 127 °C
SMILES: COc1ccc(CNCc2cc(Cl)c3cccnc3c2O)cc1 [Example 7, 5-Chloro-7-(((4-methoxybenzyl)amino)methyl)quinolin-8-ol]
SR (TQ) [3]: 1.3
SR [2, 9]: 13.4
Selectivity Ratio (SR) (A431/A431-B1) [1]: 12.6

melting point: 135 to 137 °C
SMILES: COc1ccccc1CNCc1cc(Br)c2cccnc2c1O [Example 8, 5-Bromo-7-(((2-methoxybenzyl)amino)methyl)quinolin-8-ol]
IC50 (MES-SA/Dx5 cell line; [6]): 0.16 µM
IC50 (MES-SA/Dx5 cell line; [7]): 0.161 µM
SR ([2]; MES-SA / MES-SA/Dx5 (Table 2b)): 13.5

melting point: 129 to 132 °C
SMILES: COc1ccc(CNCc2cc(Br)c3cccnc3c2O)cc1 [Example 10, 5-Bromo-7-(((4-methoxybenzyl)amino)methyl)quinolin-8-ol]
Selectivity Ratio (SR) (A431/A431-B1) [1]: 11.2

melting point: 206 to 209 °C
SMILES: COc1ccc(CNCc2cc([N+](=O)[O-])c3cccnc3c2O)c(OC)c1 [Example 28, 7-(((2,4-Dimethoxybenzyl)amino)methyl)-5-nitroquinolin-8-ol]
IC50 (MES-SA cell line): 8650 nM
IC50 (MES-SA/Dx5 cell line; [6]): 0.44 µM
IC50 (MES-SA/Dx5 cell line; [8]): 0.442 µM
SR (TQ) [3]: 1.6
SR ([2]; MES-SA / MES-SA/Dx5 (Table 2b)): 19.7
SR [2, 9]: 19.7

melting point: 199 to 203 °C
SMILES: COc1ccccc1CNCc1cc([N+](=O)[O-])c2cccnc2c1O [Example 29, 7-(((2-Methoxybenzyl)amino)methyl)-5-nitroquinolin-8-ol]
IC50 (MES-SA cell line): 40600 nM
IC50 (MES-SA/Dx5 cell line; [8]): 2.09 µM
Selectivity Ratio (SR) (MDCK II/MDCK II B1) [5]: 17.1
Selectivity Ratio (SR) ([2]; IC50 in MES-SA divided by IC50 in MES-SA/Dx5 (Table 2a)): 19.2
Selectivity Ratio (SR) (A431/A431-B1) [1]: 25.1
